{"source": "patent US20190054087A1", "about": "“TREATMENT OF SMALL CELL LUNG CANCER WITH A PARP INHIBITOR” (priority 2015, published 2019)", "key": {"38 SCLC cell lines": {"system": "38 SCLC cell lines", "experiment": "Cell line cytotoxicity assay (CellTiter Glo), panel of 38 SCLC cell lines", "assay_type": "cell-based", "details": "Homo sapiens, 38 SCLC lines, 5 or 7 days incubation, generational method", "method": "Various SCLC cell lines (38) were obtained from ATCC (American Type Culture Collection), ECACC (European Collection of Cell Cultures), JCRB (Japanese Collection of Research Bioresources), and CLS Cell Lines Service as shown in Table 1. […] After 24 h, talazoparib at 2000, 400, 80, 16, 3.2, or 0.64 nM in 0.2% DMSO, or cisplatin at 100,000, 2000, 400, 80, 16, or 3.2 nM were added in duplicate, and incubated for an additional 5 or 7 days. Cell survival was determined by CellTiter Glo assay (Promega). Cell growth inhibition was calculated by two methods: (a) the treated cell counts relative to untreated control to obtain IC50 (convention survival fraction method), or (b) doublings from baseline under treatment relative to doublings from baseline without treatment to obtain GI50 (generational method), using GraphPad Prism5. Maximum inhibition levels for each method were also obtained."}, "NCI-H209 SCLC cell line": {"system": "NCI-H209 SCLC cell line", "experiment": "Cell line cytotoxicity assay (CellTiter Glo), NCI-H209", "assay_type": "cell-based", "details": "Homo sapiens, SLFN11 RMA 8.794, read-out: BMN 673 Sensitivity In vitro GI50", "method": "(§1) After 24 h, talazoparib at 2000, 400, 80, 16, 3.2, or 0.64 nM in 0.2% DMSO, or cisplatin at 100,000, 2000, 400, 80, 16, or 3.2 nM were added in duplicate, and incubated for an additional 5 or 7 days. Cell survival was determined by CellTiter Glo assay (Promega). Cell growth inhibition was calculated by two methods: (a) the treated cell counts relative to untreated control to obtain IC50 (convention survival fraction method), or (b) doublings from baseline under treatment relative to doublings from baseline without treatment to obtain GI50 (generational method), using GraphPad Prism5. Maximum inhibition levels for each method were also obtained."}, "NCI-H1048 SCLC cell line": {"system": "NCI-H1048 SCLC cell line", "experiment": "Cell line cytotoxicity assay (CellTiter Glo), NCI-H1048", "assay_type": "cell-based", "details": "Homo sapiens, SLFN11 RMA 7.583, read-out: BMN 673 Sensitivity In vitro GI50", "method": "as §1"}, "NCI-H69 SCLC cell line": {"system": "NCI-H69 SCLC cell line", "experiment": "Cell line cytotoxicity assay (CellTiter Glo), NCI-H69", "assay_type": "cell-based", "details": "Homo sapiens, SLFN11 RMA 3.981, read-out: BMN 673 Sensitivity In vitro GI50", "method": "as §1"}, "NCI-H209 SCLC xenograft": {"system": "NCI-H209 SCLC xenograft", "experiment": "Cell line-derived xenograft model NCI-H209", "assay_type": "in vivo, BALB/c nude mice", "details": "0.33 mg/kg, Q1D×28 p.o.", "method": "(§2) Human NCI-H1048, NCI-H209, and NCI-H69 SCLC tumor cells were injected subcutaneously in the flanks of BALB/c nude mice. When tumors reached approximately 130 mm^3 average volume, animals (n=8 per group) were treated with vehicle (Q1D×28, p.o.), cisplatin (6 mg/kg, Q6D×2 i.p.), or talazoparib (0.33 mg/kg, Q1D×28 p.o.). Tumor growth and animal body weight were monitored twice per week by standard methods."}, "NCI-H1048 SCLC xenograft": {"system": "NCI-H1048 SCLC xenograft", "experiment": "Cell line-derived xenograft model NCI-H1048", "assay_type": "in vivo, BALB/c nude mice", "details": "0.33 mg/kg, Q1D×28 p.o.", "method": "as §2"}, "NCI-H69 SCLC xenograft": {"system": "NCI-H69 SCLC xenograft", "experiment": "Cell line-derived xenograft model NCI-H69", "assay_type": "in vivo, BALB/c nude mice", "details": "0.33 mg/kg, Q1D×28 p.o.", "method": "as §2"}, "[1]": {"system": "LU-01-0547 SCLC PDX tumor", "experiment": "Human SCLC PDX model LU-01-0547", "assay_type": "in vivo, immunocompromised mice", "details": "D 83, MTD 0.25-0.3 mg/kg once daily oral, median tumor volume (n = 5)", "method": "(§3) Twelve human SCLC PDX models (obtained from Crown Biosciences, OncoTest, WuxiAppTec) were evaluated for their responses to talazoparib single agent treatment. PDX tumors were propagated subcutaneously in immunocompromised mice at passage 3 to 13. When tumors reached approximately 150 mm^3 average volume, animals (n=5 per group) were administered orally with vehicle (once daily dose), or talazoparib at the maximum tolerated dose (MTD; 0.25-0.3 mg/kg, once daily). Tumor volume and animal body weight were measured twice weekly until the end of study or until tumor size exceeded 2000 mm^3. Untreated tumor samples were collected from mice. Median tumor volume on Day 21 and beyond after first treatment was used to calculate the change from baseline to evaluate response."}, "CTG-0198 SCLC PDX tumor": {"system": "CTG-0198 SCLC PDX tumor", "experiment": "Human SCLC PDX model CTG-0198", "assay_type": "in vivo, immunocompromised mice", "details": "D 29, MTD 0.25-0.3 mg/kg once daily oral, median tumor volume (n = 5)", "method": "as §3"}, "LU1267 SCLC PDX tumor": {"system": "LU1267 SCLC PDX tumor", "experiment": "Human SCLC PDX model LU1267", "assay_type": "in vivo, immunocompromised mice", "details": "D 38, MTD 0.25-0.3 mg/kg once daily oral, median tumor volume (n = 5)", "method": "as §3"}, "LU67 SCLC PDX tumor": {"system": "LU67 SCLC PDX tumor", "experiment": "Human SCLC PDX model LU67", "assay_type": "in vivo, immunocompromised mice", "details": "D 25, MTD 0.25-0.3 mg/kg once daily oral, median tumor volume (n = 5)", "method": "as §3"}, "LU65 SCLC PDX tumor": {"system": "LU65 SCLC PDX tumor", "experiment": "Human SCLC PDX model LU65", "assay_type": "in vivo, immunocompromised mice", "details": "D 21, MTD 0.25-0.3 mg/kg once daily oral, median tumor volume (n = 5)", "method": "as §3"}, "LXFS 615 SCLC PDX tumor": {"system": "LXFS 615 SCLC PDX tumor", "experiment": "Human SCLC PDX model LXFS 615", "assay_type": "in vivo, immunocompromised mice", "details": "D 21, MTD 0.25-0.3 mg/kg once daily oral, median tumor volume (n = 5)", "method": "as §3"}, "LXFS 1129 SCLC PDX tumor": {"system": "LXFS 1129 SCLC PDX tumor", "experiment": "Human SCLC PDX model LXFS 1129", "assay_type": "in vivo, immunocompromised mice", "details": "D 21, MTD 0.25-0.3 mg/kg once daily oral, median tumor volume (n = 5)", "method": "as §3"}, "LU2514 SCLC PDX tumor": {"system": "LU2514 SCLC PDX tumor", "experiment": "Human SCLC PDX model LU2514", "assay_type": "in vivo, immunocompromised mice", "details": "D 21, MTD 0.25-0.3 mg/kg once daily oral, median tumor volume (n = 5)", "method": "as §3"}, "LXFS 650 SCLC PDX tumor": {"system": "LXFS 650 SCLC PDX tumor", "experiment": "Human SCLC PDX model LXFS 650", "assay_type": "in vivo, immunocompromised mice", "details": "D 21, MTD 0.25-0.3 mg/kg once daily oral, median tumor volume (n = 5)", "method": "as §3"}, "CTG-0199 SCLC PDX tumor": {"system": "CTG-0199 SCLC PDX tumor", "experiment": "Human SCLC PDX model CTG-0199", "assay_type": "in vivo, immunocompromised mice", "details": "D 21, MTD 0.25-0.3 mg/kg once daily oral, median tumor volume (n = 5)", "method": "as §3"}, "LXFS 573 SCLC PDX tumor": {"system": "LXFS 573 SCLC PDX tumor", "experiment": "Human SCLC PDX model LXFS 573", "assay_type": "in vivo, immunocompromised mice", "details": "D 21, MTD 0.25-0.3 mg/kg once daily oral, median tumor volume (n = 5)", "method": "as §3"}, "LXFS 2156 SCLC PDX tumor": {"system": "LXFS 2156 SCLC PDX tumor", "experiment": "Human SCLC PDX model LXFS 2156", "assay_type": "in vivo, immunocompromised mice", "details": "D 21, MTD 0.25-0.3 mg/kg once daily oral, median tumor volume (n = 5)", "method": "as §3"}, "[2]": {"system": "Twelve human SCLC PDX models", "experiment": "Twelve human SCLC PDX models, response classification", "assay_type": "in vivo, immunocompromised mice", "details": "12 SCLC PDX models; talazoparib at maximum tolerated dose", "method": "as §3\nTwelve human SCLC PDX models were further tested with talazoparib at maximum tolerated doses compared to a vehicle control."}}, "note": "Where two headings read alike, the source gives them in different places."}
{"smiles": "Cn1ncnc1[C@H]1c2n[nH]c(=O)c3cc(F)cc(c23)N[C@@H]1c1ccc(F)cc1", "note": "[talazoparib]", "values": [{"measurement": "GI50", "setting": "38 SCLC cell lines; read-out: GI50 range across the 38 SCLC lines", "result": "≥ 0.002", "unit": "µM"}, {"measurement": "GI50", "setting": "38 SCLC cell lines; read-out: median GI50 across the 38 SCLC lines", "result": 0.056, "unit": "µM"}, {"measurement": "GI50", "setting": "NCI-H209 SCLC cell line", "result": 0.00203, "unit": "µM"}, {"measurement": "GI50", "setting": "NCI-H1048 SCLC cell line", "result": 0.0144, "unit": "µM"}, {"measurement": "GI50", "setting": "NCI-H69 SCLC cell line", "result": 0.19, "unit": "µM"}, {"measurement": "BMN 673 Sensitivity In vivo Tumor growth", "setting": "NCI-H209 SCLC xenograft", "result": "much more sensitive to talazoparib than the H69 model"}, {"measurement": "BMN 673 Sensitivity In vivo Tumor growth", "setting": "NCI-H209 SCLC xenograft; listed as BMN 673, 0.33 mg/kg", "result": "Delay"}, {"measurement": "BMN 673 Sensitivity In vivo Tumor growth", "setting": "NCI-H1048 SCLC xenograft", "result": "much more sensitive to talazoparib than the H69 model"}, {"measurement": "BMN 673 Sensitivity In vivo Tumor growth", "setting": "NCI-H1048 SCLC xenograft; listed as BMN 673, 0.33 mg/kg", "result": "Delay"}, {"measurement": "BMN 673 Sensitivity In vivo Tumor growth", "setting": "NCI-H69 SCLC xenograft", "result": "No delay"}, {"measurement": "Best response: Change from base line (%)", "setting": "[1]", "result": "−95", "unit": "%"}, {"measurement": "Best response: Change from base line (%)", "setting": "CTG-0198 SCLC PDX tumor", "result": "−55", "unit": "%"}, {"measurement": "Best response: Change from base line (%)", "setting": "LU1267 SCLC PDX tumor", "result": "−30", "unit": "%"}, {"measurement": "Best response: Change from base line (%)", "setting": "LU67 SCLC PDX tumor", "result": "−29", "unit": "%"}, {"measurement": "Best response: Change from base line (%)", "setting": "LU65 SCLC PDX tumor", "result": 17, "unit": "%"}, {"measurement": "Best response: Change from base line (%)", "setting": "LXFS 615 SCLC PDX tumor", "result": 83, "unit": "%"}, {"measurement": "Best response: Change from base line (%)", "setting": "LXFS 1129 SCLC PDX tumor", "result": 260, "unit": "%"}, {"measurement": "Best response: Change from base line (%)", "setting": "LU2514 SCLC PDX tumor", "result": 262, "unit": "%"}, {"measurement": "Best response: Change from base line (%)", "setting": "LXFS 650 SCLC PDX tumor", "result": 314, "unit": "%"}, {"measurement": "Best response: Change from base line (%)", "setting": "CTG-0199 SCLC PDX tumor", "result": 318, "unit": "%"}, {"measurement": "Best response: Change from base line (%)", "setting": "LXFS 573 SCLC PDX tumor", "result": 351, "unit": "%"}, {"measurement": "Best response: Change from base line (%)", "setting": "LXFS 2156 SCLC PDX tumor", "result": 615, "unit": "%"}, {"measurement": "PDX models designated as progressive disease (PD)", "setting": "[2]", "result": "remaining PDX models were resistant"}, {"measurement": "PDX models with 30% or more tumor regression compared to baseline (partial responders, PR)", "setting": "[2]", "result": "Three of the 12"}, {"measurement": "PDX tumors with stable disease (SD)-like responses, tumor growth less than 100% on Day 21 or beyond", "setting": "[2]", "result": "three of the 12"}]}
